This assay concerns the target PIK3CD (Human) (UniProt O00329). As to the kind of experiment: Assessment of PIK3CD Kinase Activity.

Molecules are shown by their SMILES.

Chain of PIK3CD (Human) (O00329 whole entry, looked up): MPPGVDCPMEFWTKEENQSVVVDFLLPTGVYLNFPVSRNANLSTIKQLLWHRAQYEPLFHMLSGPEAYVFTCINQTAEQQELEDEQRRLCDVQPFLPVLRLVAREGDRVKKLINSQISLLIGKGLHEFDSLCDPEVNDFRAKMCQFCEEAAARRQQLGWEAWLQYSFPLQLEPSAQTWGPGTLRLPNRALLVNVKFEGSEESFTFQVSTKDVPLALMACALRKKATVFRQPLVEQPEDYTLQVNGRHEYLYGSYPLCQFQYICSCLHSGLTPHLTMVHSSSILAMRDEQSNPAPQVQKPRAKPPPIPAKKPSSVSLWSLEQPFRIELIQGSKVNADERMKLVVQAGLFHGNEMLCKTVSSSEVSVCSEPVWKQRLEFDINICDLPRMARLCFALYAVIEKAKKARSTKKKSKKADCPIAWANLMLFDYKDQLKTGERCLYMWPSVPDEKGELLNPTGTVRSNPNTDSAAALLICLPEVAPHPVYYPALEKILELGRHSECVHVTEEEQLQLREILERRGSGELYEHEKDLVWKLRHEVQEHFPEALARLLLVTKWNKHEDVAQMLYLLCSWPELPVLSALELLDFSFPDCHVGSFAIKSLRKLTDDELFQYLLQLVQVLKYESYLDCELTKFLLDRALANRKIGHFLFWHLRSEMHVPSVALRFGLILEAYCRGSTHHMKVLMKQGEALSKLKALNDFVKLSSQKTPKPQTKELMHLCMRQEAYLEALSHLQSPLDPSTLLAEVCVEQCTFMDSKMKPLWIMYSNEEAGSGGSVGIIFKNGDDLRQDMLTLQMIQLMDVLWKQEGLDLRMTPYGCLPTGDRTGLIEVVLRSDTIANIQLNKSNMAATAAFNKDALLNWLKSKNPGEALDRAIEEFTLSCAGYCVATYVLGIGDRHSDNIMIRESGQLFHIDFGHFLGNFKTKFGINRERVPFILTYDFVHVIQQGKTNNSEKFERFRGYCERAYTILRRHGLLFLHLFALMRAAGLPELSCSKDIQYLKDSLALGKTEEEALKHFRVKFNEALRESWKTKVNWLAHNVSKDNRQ

Regarding `Cn1c(C(=O)N2CC[C@@H](F)C2)nc2c(N3CCC(n4c(=O)[nH]c5ccccc54)CC3)ncnc21`, the concentration for half-maximal inhibition (IC50) (in general, the point on the concentration scale where inhibition reaches its midpoint) was in the range of 50 to 250 nM.
As for `CN1CCN(c2cccc3c2[nH]c(=O)n3C2CCN(c3ncnc4c3nc(C(=O)NCC3CC3)n4C)CC2)CC1`, the IC50 was 50 to 250 nM.
`Cn1c(C(=O)NCC2CC2)nc2c(N3CCc4c(cnn4-c4ccccc4)C3)ncnc21`: the IC50 was in the range of 250 to 500 nM.
The value for `COc1cccc2c1[nH]c(=O)n2C1CCN(c2ncnc3c2nc(C(=O)NCC2CC2)n3C)CC1` was 50 to 250 nM; that for `Cc1cccc(-n2ncc3c2CCN(c2ncnc4c2nc(C(=O)NCC2CC2)n4C)C3)c1` was 500 to 1500 nM.
In the case of `Cn1c(C(=O)NCC2CC2)nc2c(N3CCC(C4C(=O)Nc5ccccc54)CC3)ncnc21` (centres undefined) it was 250 to 500 nM; in that of `Cn1c(C(=O)NCC2CC2)nc2c(N3CCC(n4c(N)nc5ccccc54)CC3)ncnc21`, 50 to 250 nM.
The value for `CN(C)C1CN(C(=O)c2nc3c(N4CCC5(CC4)C(=O)NCN5c4ccccc4)ncnc3n2C)C1` was 500 to 1500 nM; that for `Cc1ccccc1-n1ncc2c1CCN(c1ncnc3c1nc(C(=O)NCC1CC1)n3C)C2` was 500 to 1500 nM; that for `CN(C)c1ccc(-c2nc3c(N4CCC(n5c(=O)[nH]c6ccccc65)CC4)ncnc3n2C)cn1` was less than 50 nM.
The compound `CCn1c(-c2cn[nH]c2)nc2c(N3CCC(n4c(=O)[nH]c5ccccc54)CC3)ncnc21` had an IC50 of less than 50 nM.
`Cn1c(-c2cn[nH]c2)nc2c(N3CCC(n4c(=O)[nH]c5ccccc54)CC3)ncnc21` yielded an IC50 of less than 50 nM.
In the case of `CC1CN(c2ncnc3c2nc(C(=O)NCC2CC2)n3C)CCC1n1c(=O)[nH]c2ccccc21` (centres undefined) it was 50 to 250 nM; in that of `CCCn1cc(-c2nc3c(N4CCC(n5c(=O)[nH]c6ccccc65)CC4)ncnc3n2CC)cn1`, less than 50 nM.
The value for `Cn1c(C(=O)NCC2CC2)nc2c(N3CCC(n4c(=O)[nH]c5ccccc54)CC3)ncnc21` was 50 to 250 nM.
The compound `Cc1ccc(-n2ncc3c2CCN(c2ncnc4c2nc(C(=O)NCC2CC2)n4C)C3)c(C)c1` showed a concentration for half-maximal inhibition (IC50) of 500 to 1500 nM.
In the case of `Cc1c(-c2nc3c(N4CCC(n5c(=O)[nH]c6c(F)cccc65)CC4)ncnc3n2C)cnn1C`, the IC50 was less than 50 nM.
In the case of `Cc1cccc(C)c1-n1ncc2c1CCN(c1ncnc3c1nc(C(=O)NCC1CC1)n3C)C2` it was 500 to 1500 nM.
On to `COc1ccc(S(=O)(=O)N2CCN(c3ncnc4c3nc(-c3cnn(C)c3)n4C)CC2)cc1`, for which the IC50 lay within 500 to 1500 nM.

Source of the values: the Kinase Knowledgebase extract (Sharma et al. 2016).
